Results published in patent US7566712B2, “Biaryl piperazinyl-pyridine analogues” (Neurogen Corporation, priority 2003, dated 2009).
Blank lines part the entries; values can stand above or below the compound they belong to.

Target: T1, human capsaicin receptor (Homo sapiens, UniProt Q8NER1)
T1 construct: pBK-CMV expression construct encoding the full length human capsaicin receptor; expressed in transfected cells
Assay: Calcium mobilization assay, determination of antagonist activity (Example 6)
Assay type: cell-based
Conditions: Table II
Outline: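 HEK293 clonal lines stably expressing full-length human capsaicin receptor, loaded with Fluo-3 AM in KRH buffer pH 7.4, 1–2 h at 37 °C. Compounds (1–5 μM final) preincubated 0.5–6 h at room temperature, then capsaicin at its EC50 added. FLIPR/Fluoroskan calcium signal; IC50 as 50% decrease of capsaicin response.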

[1] = determined as described in Example 6 (calcium mobilization, antagonist activity)
[2] = determined as described in Example 6 (antagonist activity), "*" = 1 micromolar or less
[3] = IC50 determined as described in Example 6
[4] = IC50 determined as described in Example 6 (antagonist activity, calcium mobilization)

T1 sequence (Q8NER1 whole entry): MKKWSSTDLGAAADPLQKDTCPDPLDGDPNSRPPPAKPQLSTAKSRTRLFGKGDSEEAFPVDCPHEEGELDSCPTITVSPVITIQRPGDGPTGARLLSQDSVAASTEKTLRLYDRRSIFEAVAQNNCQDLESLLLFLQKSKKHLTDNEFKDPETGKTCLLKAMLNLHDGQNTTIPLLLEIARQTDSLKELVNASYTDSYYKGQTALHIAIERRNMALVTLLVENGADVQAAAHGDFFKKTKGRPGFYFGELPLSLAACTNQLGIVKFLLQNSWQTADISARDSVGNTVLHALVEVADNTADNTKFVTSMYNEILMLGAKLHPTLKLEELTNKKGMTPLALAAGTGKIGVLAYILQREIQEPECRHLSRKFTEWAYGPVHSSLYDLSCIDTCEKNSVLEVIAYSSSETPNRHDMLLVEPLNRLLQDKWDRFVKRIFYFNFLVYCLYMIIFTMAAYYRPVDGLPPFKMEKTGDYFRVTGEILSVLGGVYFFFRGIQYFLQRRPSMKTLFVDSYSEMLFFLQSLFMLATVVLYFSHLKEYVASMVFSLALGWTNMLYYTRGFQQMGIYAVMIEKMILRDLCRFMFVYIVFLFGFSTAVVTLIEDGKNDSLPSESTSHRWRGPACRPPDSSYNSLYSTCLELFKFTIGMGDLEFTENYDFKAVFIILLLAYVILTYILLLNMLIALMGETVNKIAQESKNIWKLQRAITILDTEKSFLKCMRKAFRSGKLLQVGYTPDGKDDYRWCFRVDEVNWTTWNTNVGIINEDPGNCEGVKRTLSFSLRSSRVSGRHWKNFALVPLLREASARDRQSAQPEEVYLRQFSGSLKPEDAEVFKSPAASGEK

IC50 [1]: ≤ 1000 nM
Compound: CC1CCCN1c1nc(-c2ccc(F)c(F)c2)cc(N2CCN(c3ncccc3Cl)C[C@H]2C)n1 (stereo partly drawn) [Example 768, 4-[(2R)-4-(3-chloropyridin-2-yl)-2-methylpiperazin-1-yl]-6-(3,4-difluorophenyl)-2-(2-methylpyrrolidin-1-yl)pyrimidine]

IC50 [2]: ≤ 1000 nM
Compound: COC[C@@H]1CCCN1c1nc(-c2ccc(F)cc2)cc(N2CCN(c3ncccc3Cl)C[C@H]2C)n1 [Example 843, 4-[(2R)-4-(3-chloropyridin-2-yl)-2-methylpiperazin-1-yl]-6-(4-fluorophenyl)-2-[(2S)-2-(methoxymethyl)pyrrolidin-1-yl]pyrimidine]

IC50 [2]: ≤ 1000 nM
Compound: Cc1cc(N)cnc1N1CCN(c2cc(-c3ccc(F)c(Cl)c3)nc(N3CCCC3C)n2)CC1 (stereo not drawn) [Example 814, 6-{4-[6-(3-chloro-4-fluorophenyl)-2-(2-methylpyrrolidin-1-yl)pyrimidin-4-yl]piperazin-1-yl}-5-methylpyridin-3-amine]

IC50 [2]: ≤ 1000 nM
Compound: CCNC(=O)c1cnc(N2CCN(c3cc(-c4ccc(F)c(Cl)c4)nc(N4CCCC4C)n3)[C@H](C)C2)c(Cl)c1 (stereo partly drawn) [Example 933, 5-chloro-6-{4-[6-(3-chloro-4-fluorophenyl)-2-(2-methylpyrrolidin-1-yl)pyrimidin-4-yl]-3-methylpiperazin-1-yl}-N-ethylnicotinamide]

IC50 [1]: ≤ 1000 nM
Compound: Cc1cc(-c2cc(N3CCN(c4ncccc4C(F)(F)F)CC3)nc(N3CCN(S(C)(=O)=O)CC3)n2)ccc1F [Example 688, 4-(4-fluoro-3-methylphenyl)-2-[4-(methylsulfonyl)piperazin-1-yl]-6-{4-[3-(trifluoromethyl)pyridin-2-yl]piperazin-1-yl}pyrimidine]

IC50 [3]: ≤ 1000 nM
Compound: NC(=O)[C@@H]1CCCN1c1nc(-c2ccc(F)c(Cl)c2)cc(N2CCN(c3ncccc3C(F)(F)F)CC2)n1 [Example 567, 1-(4-(3-chloro-4-fluorophenyl)-6-{4-[3-(trifluoromethyl)pyridin-2-yl]piperazin-1-yl}pyrimidin-2-yl)-L-prolinamide]

IC50 [1]: ≤ 1000 nM
Compound: CC(=N)N1CCN(c2nc(-c3ccc(F)c(Cl)c3)cc(N3CCN(c4ncccc4C(F)(F)F)CC3)n2)CC1 [Example 663, 1-[4-(4-(3-chloro-4-fluorophenyl)-6-{4-[3-(trifluoromethyl)pyridin-2-yl]piperazin-1-yl}pyrimidin-2-yl)piperazin-1-yl]ethanimine]

IC50 (determined as described in Example 6, class symbol): ≤ 1000 nM
Compound: Cc1cccc(-c2nc(N3CCCCCC3)nc(N3CCN(c4ncccc4C(F)(F)F)CC3)n2)c1 [Example 262, 1-(4-(3-methylphenyl)-6-{4-[3-(trifluoromethyl)pyridin-2-yl]piperazin-1-yl}-1,3,5-triazin-2-yl)azepane]

IC50 [3]: ≤ 1000 nM
Compound: Cc1cccnc1N1CCN(c2cc(-c3cccc4ccccc34)nc(N3CCOCC3)n2)[C@H](C)C1 [Example 521, 4-[4-[(2R)-2-methyl-4-(3-methylpyridin-2-yl)piperazin-1-yl]-6-(1-naphthyl)pyrimidin-2-yl]morpholine]

IC50 [1]: ≤ 1000 nM
Compound: CC1CCCN1c1nc(-c2ccc(F)c(Cl)c2)cc(N2CCN(c3ncccc3C#N)CC2)n1 (stereo not drawn) [Example 709, 2-{4-[6-(3-chloro-4-fluorophenyl)-2-(2-methylpyrrolidin-1-yl)pyrimidin-4-yl]piperazin-1-yl}nicotirionitrile]

IC50 [1]: ≤ 1000 nM
Compound: CC(C)N1CCN(c2nc(-c3ccc(F)c(Cl)c3)cc(N3CCN(c4ncccc4C(F)(F)F)CC3)n2)CC1 [Example 598, 4-(3-chloro-4-fluorophenyl)-2-(4-isopropylpiperazin-1-yl)-6-{4-[3-(trifluoromethyl)pyridin-2-yl]piperazin-1-yl}pyrimidine]

IC50 [2]: ≤ 1000 nM
Compound: Cc1ccc(C)n1-c1nc(-c2ccc(F)cc2)cc(N2CCN(c3ncccc3Cl)C[C@H]2C)n1 [Example 873, 4-((2R)-4-(3-chloropyridin-2-yl)-2-methylpiperazin-1-yl]-2-(2,5-dimethyl-1H-pyrrol-1-yl)-6-(4-fluorophenyl)pyrimidine]

IC50 [2]: ≤ 1000 nM
Compound: COc1ncc(Cl)c(N2CCN(c3nc(-c4ccc(F)cc4)cc(N4CCC[C@H]4C)n3)[C@H](C)C2)n1 [Example 968, 5-chloro-4-((3R)-4-{4-(4-fluorophenyl)-6-[(2R)-2-methylpyrrolidin-1-yl]pyrimidin-2-yl}-3-methylpiperazin-1-yl)-2-methoxypyrimidine]

IC50 [1]: ≤ 1000 nM
Compound: Cn1ccnc1-c1nc(-c2ccc(F)c(Cl)c2)cc(N2CCN(c3ncccc3C(F)(F)F)CC2)n1 [Example 662, 4-(3-chloro-4-fluorophenyl)-2-(1-methyl-1H-imidazol-2-yl)-6-{4-[3-(trifluoromethyl)pyridin-2-yl]piperazin-1-yl}pyrimidine]

IC50 [4]: ≤ 1000 nM
Compound: C[C@@H]1CN(c2ncccc2C(F)(F)F)CCN1c1cc(-c2ccc(F)c(F)c2)nc(N2CCC[C@@H]2C)n1 [Example 995, 4-(3,4-difluorophenyl)-2-[(2S)-2-methylpyrrolidin-1-yl]-6-{(2R)-2-methyl-4-[3-(trifluoromethyl)pyridin-2-yl]piperazin-1-yl}pyrimidine]

IC50 [2]: ≤ 1000 nM
Compound: Cc1ccc(-c2cc(N3CCN(c4ncccc4Cl)C[C@H]3C)nc(N3CCCCC3)n2)cc1F [Example 804, 4-[(2R)-4-(3-chloropyridin-2-yl)-2-methylpiperazin-1-yl]-6-(3-fluoro-4-methylphenyl)-2-piperidin-1-ylpyrimidine]

IC50 [3]: ≤ 1000 nM
Compound: COc1cccc(-c2cc(N3CCN(c4ncccc4C#N)C[C@H]3C)nc(N3CCOCC3)n2)c1 [Example 523, 2-{(3R)-4-[6-(3-methoxyphenyl)-2-morpholin-4-ylpyrimidin-4-yl]-3-methylpiperazin-1-yl}nicotinonitrile]

IC50 [3]: ≤ 1000 nM
Compound: CCc1ccc(-c2cc(N3CCN(c4ncccc4Cl)C[C@H]3C)nc(N3CCOCC3)n2)cc1 [Example 511, 4-[4-[(2R)-4-(3-chloropyridin-2-yl)-2-methylpiperazin-1-yl]-6-(4-ethylphenyl)pyrimidin-2-yl]morpholine]

IC50 [3]: ≤ 1000 nM
Compound: CSc1cccc(-c2cc(N3CCN(c4ncccc4Cl)C[C@H]3C)nc(N3CCOCC3)n2)c1 [Example 539, 4-{4-[(2R)-4-(3-chloropyridin-2-yl)-2-methylpiperazin-1-yl]-6-[3-(methylthio)phenyl]pyrimidin-2-yl}morpholine]

IC50 [3]: ≤ 1000 nM
Compound: Fc1ccc(-c2cc(N3CCN(c4ncccc4C(F)(F)F)CC3)nc(OCCN3CCCC3)n2)cc1Cl [Example 558, 4-(3-chloro-4-fluorophenyl)-2-(2-pyrrolidin-1-ylethoxy)-6-{4-[3-(trifluoromethyl)pyridin-2-yf]piperazin-1-yl}pyrimidine]

IC50 [1]: ≤ 1000 nM
Compound: CC(C)c1nc(-c2ccc(F)c(Cl)c2)cc(N2CCN(c3ncccc3C(F)(F)F)CC2)n1 [Example 605, 4-(3-chloro-4-fluorophenyl)-2-isopropyl-6-{4-[3-(trifluoromethyl)pyridin-2-yl]piperazin-1-yl}pyrimidine]

IC50 [1]: ≤ 1000 nM
Compound: Cc1ccc(-c2cc(N3CCN(c4ncccc4C(F)(F)F)CC3)nc(N3CCOCC3)n2)cn1 [Example 606, 4-(4-(6-methylpyridin-3-yl)-6-{4-[3-(trifluoromethyl)pyridin-2-yl]piperazin-1-yl}pyrimidin-2-yl)morpholine]

IC50 [4]: ≤ 1000 nM
Compound: Cc1ccc(-c2cc(N3CCN(c4nccnc4Cl)C[C@H]3C)nc(N3CCC[C@@H]3C)n2)cc1F [Example 992, 4-[(2R)-4-(3-chloropyrazin-2-yl)-2-methylpiperazin-1-yl]-6-(3-fluoro-4-methylphenyl)-2-[(2S)-2-methylpyrrolidin-1-yl]pyrimidine]

IC50 [3]: ≤ 1000 nM
Compound: CCCc1ccc(-c2cc(N3CCN(c4ncccc4Cl)C[C@H]3C)nc(N3CCOCC3)n2)cc1 [Example 513, 4-[4-[(2R)-4-(3-chloropyridin-2-yl)-2-methylpiperazin-1-yl]-6-(4-propylphenyl)pyrimidin-2-yl]morpholine]

IC50 [1]: ≤ 1000 nM
Compound: CNC[C@@H]1CCCN1c1nc(-c2ccc(F)c(Cl)c2)cc(N2CCN(c3ncccc3C(F)(F)F)CC2)n1 [Example 694, 1-[(2S)-1-(4-(3-chloro-4-fluorophenyl)-6-{4-[3-(trifluoromethyl)pyridin-2-yl]piperazin-1-yl}pyrimidin-2-yl)pyrrolidin-2-yl]-N-methylmethanamine]

IC50 [4]: ≤ 1000 nM
Compound: CC1CCCN1c1nc(-c2ccc(F)c(Cl)c2)cc(N2CCN(c3ncc(C#N)cn3)CC2)n1 (stereo not drawn) [Example 1009, 2-{4-[6-(3-chloro-4-fluorophenyl)-2-(2-methylpyrrolidin-1-yl)pyrimidin-4-yl]piperazin-1-yl}pyrimidine-5-carbonitrile]

IC50 [2]: ≤ 1000 nM
Compound: C[C@@H]1CN(c2nccnc2Cl)CCN1c1nc(Cl)cc(-c2ccc(F)cc2)n1 [Example 919, 4-chloro-2-[(2R)-4-(3-chloropyrazin-2-yl)-2-methylpiperazin-1-yl]-6-(4-fluorophenyl)pyrimidine]

IC50 [4]: ≤ 1000 nM
Compound: COc1ncc(Cl)c(N2CCN(c3cc(-c4ccc(F)cc4)nc(N4CCOCC4)n3)[C@H](C)C2)n1 [Example 972, 4-[4-[(2R)-4-(5-chloro-2-methoxypyrimidin-4-yl)-2-methylpiperazin-1-yl]-6-(4-fluorophenyl)pyrimidin-2-yl]morpholine]

IC50 [1]: ≤ 1000 nM
Compound: FC(F)(F)c1cccnc1N1CCN(c2cc(-c3ccc(N4CCCC4)c(Cl)c3)nc(N3CCCC3)n2)CC1 [Example 608, 4-(3-chloro-4-pyrrolidin-1-ylphenyl)-2-pyrrolidin-1-yl-6-{4-[3-(trifluoromethyl)pyridin-2-yl]piperazin-1-yl}pyrimidine]

IC50 [2]: ≤ 1000 nM
Compound: CC1CCN1c1nc(-c2cncc(Cl)c2)cc(N2CCN(c3ncccc3Cl)C[C@H]2C)n1 (stereo partly drawn) [Example 855, 4-(5-chloropyridin-3-yl)-6-[4-(3-chloropyridin-2-yl)-2-methylpiperazin-1-yl]-2-(2-methylazetidin-1-yl)pyrimidine]
